In patent US10220022B2, “Compositions and methods employing Wolbachia FtsZ as a target for Albendazole sulfone” (The Regents of the University of California, priority 2011, dated 2019):

Key:
Wolbachia = Wolbachia titer in Drosophila oogenesis after drug feeding; assay type: in vivo; settings: 24-hour treatment, counts from single oocyte focal planes; DMSO control 225+/−18
Text: (§1) Drug feeding conditions: Fly feeding we done as previously described.
(§2) Staining: Drosophila Ovary staining was done with PI, anti-tubuli. Drosophila Embryo staining was done with anti-FtsZ. Brugia microfilarial staining was done with PI, anti-tubulin, and anti-FtsZ.
As Albendazole is already a widely used, FDA-approved drug, we proceeded to test it and the primary metabolites Albendazole sulfoxide and Albendazole sulfone for anti-Wolbachia effects in Drosophila oogenesis. This system provides a high-precision method for assessing Wolbachia titer in a well-characterized developmental context.

[1] = system: Wolbachia-infected JW18 cells; experiment: High-throughput screen for compounds reducing Wolbachia infection of JW18 cells; assay type: cell-based, Drosophila; settings: 100 uM per well, 5-day incubation at 25 C, 3 replicates
Protocol: Cells were plated in 384-well, clear bottom plates (Griener Bio-one) pre-coated with 0.5 mg/mL Concanavalin A. JW18 cells were added to 22 columns, and JW18TET cells were added to the remaining 2 columns at a dilution of 6500 cells per well. After the cells adhered to the plates, compounds were transferred into 20 columns of JW18 cells in the center of the plate using a Janus MDT pin tool. The final concentration of compound was 100 uM per well. All treatments were distributed into 3 plate replicates.
After a 5-day incubation with the compounds at 25 C, the cells were prepared for imaging. Cells were fixed for 20 minutes in 4% formaldehyde and rinsed with PBS using an automated BioTek liquid handler. All staining solutions were administered using a Multidrop robot, with extensive rinsing between treatments. The primary antibody, mouse anti histone (MAB052, Millipore), was used at 1:1250 in PBS/0.1% Triton. Secondary antibody goat anti-mouse Alexa 594 (Invitrogen) was used at 1:1250. DAPI was used as a saturated solution, diluted to a final concentration of 1:40. After staining, PBS+Azide was added to all wells of the plates.
Stained treatment plates were imaged using the MetaExpress Micro system (Molecular Devices, Sunnyvale Calif.). 10 images were acquired per well at 40× magnification. These images were next analyzed using customized journaling software provided by Molecular Devices. The journal first masks any areas where clumps of cells are detected, based upon intensity of the Jupiter-GFP. The boundaries of the remaining cells and their nuclei are recognized based upon the Jupiter-GFP and anti-histone stains. A mask is applied to the nuclei, to obscure the hi stone and DAPI signal from those areas. A threshold for DAPI fluorescence detection is set to detect as much Wolbachia as possible in JW18 control cells while minimizing detection of background DAPI signal in JW18TET control cells. Then this cytoplasmic DAPI level, read to indicate Wolbachia, is scored in the cytoplasm of individual cells to determine whether each cell is infected with Wolbachia. The cutoff value distinguishing “infected” from “uninfected” cells is 4000-5000 fluorescence units per cell.
A spreadsheet from the journal indicates the quantity of Wolbachia-infected cells versus total cells measured in each well. A Z′ factor is calculated for each plate based upon the average frequency of cell infection for JW18 and JW18TET control cells. […] An initial hit range is calculated to lie between the JW18 average infection frequency−3 standard deviations, and the average JW18TET infection frequency+3 standard deviations. To further refine identification of hits, we also calculated an average infection frequency for all JW18 cells on the plate (treated or not), as most treatment wells are expected to be indistinguishable from untreated controls. Wells are that lie within 3 standard deviations of the mean are exluded, and remaining wells are classified as hits within that replicate. Hit wells that are identified in at least 2 out of 3 replicates are considered to be finalized hits.
In this screen, 3081 compounds froth the National Cancer Institute were used. […] Cells were incubated for 5 days with each compound, then fixed, stained, and imaged using automated robotics (FIG. 2). Customized analysis software was used to compare the images from compound-treated wells to the control cells to assay for significant changes in the quantity of Wolbachia-infected cells. All treatment plates were run in triplicate.

Streptococcus pyrogenes = settings: prior screen; cited from earlier work
M. tuberculosis FtsZ = M. tuberculosis FtsZ (Mycobacterium tuberculosis, UniProt P9WN95); settings: cited from earlier work
[2] = system: oocyte microtubule cytoskeleton; experiment: Posterior Wolbachia localization in treated oocytes; assay type: in vivo; settings: treated Drosophila oocytes; DMSO controls 95%
Text: as §1, §2
(§3) To address whether Albendazole sulfone acts on Wolbachia by disrupting the oocyte microtubule cytoskeleton, a combination of approaches was used. It has previously been shown that Wolbachia concentrate at the oocyte posterior cortex in a microtubule-dependent manner. […] We also examined the cytoskeleton directly by immunolabeling the microtubules.

[3] = system: oocyte microtubule cytoskeleton; experiment: Immunolabeling of oocyte microtubules; assay type: in vivo, Drosophila; settings: immunolabeling of the microtubules, stage 10A oocytes
Text: as §2, §3

B. malayi microtubules = experiment: Microtubule staining of treated Brugia malayi microfilariae; settings: compound fed to Brugia malayi microfilariae
Text: as §2
(§4) To investigate whether Albendazole sulfone disrupts Walbachia FtsZ, we fed this compound to Brugia malayi microfilariae, which carry Wolbachia as an essential endosymbiont. […] This is consistent with the predicted benzimidazole susceptibility of B. malayi beta tubulin (FIG. 5).
(§5) In view of the above the inventors posed the questions: By what mechanism does Albendazole sulfone act against Wolbachia FtsZ? And is FtsZ disruption a consequence of host microtubule disassembly, or due to a separate effect on FtsZ by Albendazole sulfone? […] To further test whether Wolbachia FtsZ relies on host microtubules, we also treated Brugia with the microtubule-disrupting drug Colchicine.

Wolbachia FtsZ = experiment: FtsZ immunostaining in treated Brugia malayi microfilariae; settings: compound fed to Brugia malayi microfilariae
Text: as §2, §4, §5

beta-tubulin = settings: relative to Albendazole sulfoxide; cited from earlier work

Sequence of M. tuberculosis FtsZ (P9WN95 whole entry): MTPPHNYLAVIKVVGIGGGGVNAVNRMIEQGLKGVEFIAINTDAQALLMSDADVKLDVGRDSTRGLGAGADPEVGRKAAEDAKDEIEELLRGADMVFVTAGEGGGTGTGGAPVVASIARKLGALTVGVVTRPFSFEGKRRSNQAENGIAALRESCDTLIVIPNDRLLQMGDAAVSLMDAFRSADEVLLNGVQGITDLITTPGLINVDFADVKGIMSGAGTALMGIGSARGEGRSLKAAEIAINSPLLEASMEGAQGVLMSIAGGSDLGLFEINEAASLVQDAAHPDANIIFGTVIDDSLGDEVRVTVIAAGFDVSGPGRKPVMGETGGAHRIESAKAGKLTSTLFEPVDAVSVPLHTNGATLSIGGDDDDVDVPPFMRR

C[C@H]1c2cccc(O)c2C(=O)C2=C(O)[C@]3(O)C(=O)C(C(N)=O)=C(O)[C@@H](N(C)C)[C@@H]3[C@@H](O)[C@@H]21 [Doxycycline]
Wolbachia per oocyte (Wolbachia): 126+/−11 Wolbachia per oocyte

CCC[S+]([O-])c1ccc2[nH]c(NC(=O)OC)nc2c1 (stereo not drawn) [Albendazole sulfoxide]
Wolbachia per oocyte (Wolbachia): 255+/−27 Wolbachia per oocyte

CC[C@@]1(O)C[C@H](O[C@H]2C[C@H](N(C)C)[C@H](O[C@H]3C[C@@H]4O[C@H]5CC(=O)[C@H](C)O[C@H]5O[C@@H]4[C@H](C)O3)[C@H](C)O2)c2c(cc3c(c2O)C(=O)c2c(O)ccc(O)c2C3=O)[C@H]1C(=O)OC [Cinerubin B]
reduction of Wolbachia-infection frequency (screen hit) [1]: hits

COC1=C(C)C(=O)C2=C(C1=O)[C@H](COC(N)=O)[C@@]1(O)[C@@H]3[C@H](CN21)N3C (stereo partly drawn) [Mitomycin B]
reduction of Wolbachia-infection frequency (screen hit) [1]: hits

CCN1/C(=C/C(C)=C/c2sc3ccccc3[n+]2CC)Sc2ccccc21.[I-] [NSC96932]
reduction of Wolbachia-infection frequency (screen hit) [1]: hits
antibacterial activity (Streptococcus pyrogenes): exert antibacterial activity

CCCSc1ccc2nc(NC(=O)OC)[nH]c2c1 [Albendazole]
Wolbachia per oocyte (Wolbachia): 194+/−20 Wolbachia per oocyte
effect on M. tuberculosis FtsZ (M. tuberculosis FtsZ): unaffected

COc1cc2c(c(OC)c1OC)-c1ccc(OC)c(=O)cc1[C@@H](NC(C)=O)CC2 [Colchicine, reference compound]
oocytes with posterior Wolbachia localization [2]: 21%
oocyte microtubule structure [3]: devoid of filamentous structure
effect on Brugia host microtubules (B. malayi microtubules): severely disrupted host microtubules
effect on Wolbachia FtsZ (Wolbachia FtsZ): FtsZ remained concentrated near Wolbachia DNA

O=[N+]([O-])/C=C/c1cc2ccccc2[nH]1 [NSC150982]
reduction of Wolbachia-infection frequency (screen hit) [1]: anti-Wolbachia

CCCS(=O)(=O)c1ccc2nc(NC(=O)OC)[nH]c2c1 [Albendazole sulfone]
Wolbachia per oocyte (Wolbachia): 150+/−13 Wolbachia per oocyte
oocytes with posterior Wolbachia localization [2]: 93%
oocyte microtubule structure [3]: fibrillar microtubule arrays
effect on Brugia host microtubules (B. malayi microtubules): widespread disruption of B. malayi microtubules
effect on Wolbachia FtsZ (Wolbachia FtsZ): FtsZ was also disrupted in most
potency as disrupter of beta-tubulin (beta-tubulin): far less potent disrupter of beta-tubulin than Albendazole sulfoxide

O=C(CSc1nc2ccccc2s1)c1sc2sc3ccccc3[n+]2c1O [NSC339601]
reduction of Wolbachia-infection frequency (screen hit) [1]: anti-Wolbachia

CN1CCN(c2ccc([N+](=O)[O-])c3no[n+]([O-])c23)CC1 [NSC207895]
reduction of Wolbachia-infection frequency (screen hit) [1]: hits
